These results are taken from article PMC8205030, “Methoxy and bromo scans on N-(5-methoxyphenyl) methoxybenzenesulphonamides reveal potent cytotoxic compounds, especially against the human breast adenocarcinoma MCF7 cell line” (Journal of Enzyme Inhibition and Medicinal Chemistry, 2021).

For assay [1], the system named is MCF7 cells. The assay can be described thus: Cell cycle analysis (PI, flow cytometry), MCF7. Type of assay: cell-based, human. The procedure:
(§1) MCF7, HeLa, and HT-29 cell cycle analyses were performed by quantifying the DNA content by flow cytometry. Cells in the exponential growth phase at 2 × 10^4 cells/mL were seeded in 24-well plates (1 ml/well). After 24 h incubation, cells were treated with compound 25 at 87.5 or 175 nM. After 24, 48, and 72 h treatments, live and dead cells were collected and fixed in ice-cold ethanol:PBS (7:3) and stored at 4 °C for later use. Cells were rehydrated with phosphate-buffered saline (PBS), treated with 100 µg/mL RNase A (Sigma-Aldrich Co., St. Louis, MO, USA), and stained overnight in darkness at room temperature with 50 µg/mL propidium iodide (PI) (Sigma-Aldrich Co.). Cell cycle profiles were then analysed by flow cytometry using BD Accuri™ C6 Plus Flow Cytometer (BD Biosciences, San José, CA, USA). Data were analysed with BD Accuri™ C6 Software (version 1.0.264.21, BD Biosciences, San José, CA, USA) and compared to control cells treated with 0.5% (v/v) DMSO. Compounds were dissolved in DMSO and the final solvent concentrations never exceeded 0.5% (v/v).

Assay [2] deals with p-62 in HeLa cells. Nature of the assay: Western blot of autophagosome marker p-62, HeLa. The settings on record: 175 nM, 24 h. Type of assay: cell-based, human. The procedure: MCF7, HeLa and HT-29 cells in an exponential growth phase at 2 × 10^4 cells/mL were seeded in Petri dishes (20 × 100 mm) (10 ml/dish). After 24 h incubation, cells were treated with compound 25 at 175 nM, and the levels of p-62 in treated and untreated cells were measured at 24 h post-treatment. The culture medium was removed, cells were washed with PBS and resuspended in 1 ml lysis buffer (50 mM Tris, 130 mM NaCl, 1 mM EDTA, 1% Triton X-100) containing protease inhibitors (Complete, Roche Applied Science, Indianapolis). Cells were harvested and incubated with lysis buffer for 30 min at 4 °C in constant agitation. Cell extracts were centrifuged at 12,000 rpm for 15 min at 4 °C and the supernatants were stored at −80 °C. Protein concentrations were determined using Bradford (BioRad, Hercules, CA) method taking BSA (Bovine Serum Albumin) as standard. Protein extracts were used for electrophoresis mixing with loading buffer (4% SDS, 0.05% bromophenol blue, 20% glycerine, 2% β-mercaptoethanol, and Tris 100 mM at pH 6.8). Proteins were then denatured at 95 °C for 7 min. Protein samples (50 μg/lane) were subjected to electrophoresis on 8% acrylamide gel and SDS-PAGE running buffer at constant voltage (140 V). Then, acrylamide gels were transferred to a PVDF membrane (Merck Millipore, Burlington, Massachusetts, USA) using a semi-dry transfer system for 30 min at constant voltage (15 V). […]

The subject of assay [3] is MCF7 (human breast carcinoma) cells. The assay can be described thus: Cell growth assay (XTT), MCF7. Type of assay: cell-based. The settings on record: Homo sapiens, MCF7; 72 h drug exposure, XTT; read-out: Antiproliferative activity IC50 MCF7. The essentials:
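Cells (1.5 × 10^4 cells/mL for MCF7, HeLa, HEK293; 3 × 10^4 cells/mL for HT-29) attached 24 h, then treated 72 h at 37 °C, 5% CO2. Screened at 1 µM; IC50 versus untreated controls from 10^−5 to 10^−10 M by nonlinear fit. XTT/PMS absorbance at 450 nm after 4 h (MCF7, HeLa) or 6 h (HT-29, HEK293); HT-29 with 10 µM verapamil.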

Assay [4] relates to HT-29 cells. Nature of the assay: Cell cycle analysis (PI, flow cytometry), HT-29. The assay is classed as cell-based, human. The procedure:
as §1

Setting [5] is: MCF7, 175 nM (higher dose), 48 h.
[6] abbreviates: MCF7, 175 nM (higher dose), 72 h.
Setting [7] is: HT-29, 48 h, concentration not specified.

For the compound `COc1ccc(S(=O)(=O)N(CC#N)c2cc(OC)c(Br)cc2OC)cc1` [Compound 25, N-(4-bromo-2,5-dimethoxyphenyl)-N-(cyanomethyl)-4-methoxybenzenesulphonamide], the “Cells at G2/M phase” value in assay [1] (MCF7, 87.5 nM, 24 h) stood at 66%; in assay [1] (setting [5]) it was 55%; in assay [1] (setting [6]), 58%; in assay [1] (MCF7, 175 nM, 24 h), 60%; in assay [4] (HT-29, 87.5 nM, 24 h), 90%; in assay [4] (HT-29, 87.5 nM, 72 h), 58%. The “Cells at G2/M phase” value in assay [4] (HT-29, 175 nM, 24 h) is 83%; in assay [4] (HT-29, 175 nM, 72 h), 54%; in assay [4] (setting [7]), 84%. For the same compound, the subG0/G1 population in assay [1] (MCF7, 87.5 nM, 24 h) turned out to be 12%; in assay [1] (setting [5]), 24%; in assay [1] (setting [6]), 26%; in assay [1] (MCF7, 175 nM, 24 h), 16%; in assay [4] (HT-29, 87.5 nM, 72 h), 23%; in assay [4] (HT-29, 175 nM, 72 h), 31%. Further, in assay [4] (setting [7]), the subG0/G1 population is 9%. The p-62 levels entry in assay [2] was “almost complete reduction in the expression of p-62”. The IC50 in assay [3] turned out to be 86 nM.
